System: duplex DNA having GAA repeats ((GAA)33)
Assay: Quantitative DNase I footprinting on extended GAA repeat DNA
Format: binding
Excerpt: The term “mismatch” in the context of polyamides or linkable units refers to replacement of one or more linkable units in a polyamide such that recognition for a specific duplex DNA pair is energetically less favorable (Dervan & Edelson, Id.; Urbach & Dervan, Id). The term “match” in the context of polyamide binding to DNA refers to a linkable unit selected according to the polyamide recognition rules of Urbach & Dervan (Id). or Dervan & Edelson (Id).
where the second oligonucleotide was labeled with γ-^32P ATP and polynucleotide kinase, using standard procedures, to generate a PCR product labeled on the GAA strand. A 204 bp singly end-labeled PCR product was derived from plasmid pMP142 DNA, containing 33 GAA repeats (Ohshima et al., Id.), with following oligonucleotides: […]

CN(C)CCCNC(=O)CCNC(=O)c1nc(NC(=O)CCNC(=O)c2cc(NC(=O)c3nc(NC(=O)CCNC(=O)c4cc(NC(=O)c5nccn5C)cn4C)cn3C)cn2C)cn1C [FA1, ImPyβImPyβImβDp]
concentration at 50% occupancy of the DNA (equals target site concentration in the reaction): ~1.5 nM
affinity for extended GAA repeats (several molecules bound per DNA molecule): no loss in affinity

Reference: US20060270727A1, “Small molecule therapeutics and uses therefor” (priority 2005, published 2006)
